# ChEMBL document CHEMBL6078695, “Design, synthesis, and biological evaluations of 5-aryl-pyrazole-3-carboxamide derivatives as selective CB2 receptor agonists for the treatment of colitis” (Eur J Med Chem, 2025)
# pEC50, pIC50: −log10 of the molar value. The source made the active and inactive calls. The calls are words filed in the database; no cut-off is given here.
# Target: T1, Cannabinoid receptor 2 (Homo sapiens, UniProt P34972)
# Test: Agonist activity at human CB2 receptor expressed in CHO cells assessed as reduction in ERK1/2 phosphorylation at 10 uM by Western blot analysis
# Format: functional, cell-based
# Conditions: not given
# T1 sequence (P34972 whole entry): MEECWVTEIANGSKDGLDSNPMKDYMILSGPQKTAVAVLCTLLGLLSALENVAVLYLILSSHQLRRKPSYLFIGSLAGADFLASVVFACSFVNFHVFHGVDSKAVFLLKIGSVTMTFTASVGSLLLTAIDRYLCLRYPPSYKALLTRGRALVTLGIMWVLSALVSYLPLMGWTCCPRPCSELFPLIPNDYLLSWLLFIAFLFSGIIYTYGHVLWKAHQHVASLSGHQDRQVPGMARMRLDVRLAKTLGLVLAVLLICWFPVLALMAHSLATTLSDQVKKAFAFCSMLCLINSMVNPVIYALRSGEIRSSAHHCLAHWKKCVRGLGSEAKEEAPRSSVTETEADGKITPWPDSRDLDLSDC
row,Structure (SMILES),Activity
1,CCCCCCC(C)(C)c1ccc([C@@H]2C[C@H](C)CC[C@H]2CCCO)c(O)c1,inactive
2,CCCCn1nc(C(=O)NC(C)(C)CO)cc1-c1cccs1,inactive

# Target: T1, Cannabinoid receptor 2
# Test: Antagonist activity at human CB2 receptor expressed in CHO cells co-transfected with human Galpha16 assessed as receptor desensitization by measuring reduction in calcium response
# Format: functional, cell-based
# Conditions: filed as antagonist
row,Structure (SMILES),Activity
1,CCCCn1nc(C(=O)NC(C)(C)CO)cc1-c1cccs1,Active

# Test system: Mus musculus
# Test: Antiinflammatory activity against DSS-induced colitis in po dosed C57/BL6 mouse model assessed as suppression of IL-6 expression administered for 9 days by ELISA analysis
# Format: functional, organism-based
# Conditions: dose 10-30 mg/kg, time 9.0 day
row,Structure (SMILES),Activity
1,CCCCn1nc(C(=O)NC(C)(C)CO)cc1-c1cccs1,Dose-dependent-effect

# Test system: Mus musculus
# Test: Antiinflammatory activity against DSS-induced colitis C57/BL6 mouse model assessed as reduction in body weight loss at 10 to 30 mg/kg, po administered for 9 days
# Format: functional, organism-based
# Conditions: dose 10-30 mg/kg, time 9.0 day
row,Structure (SMILES),Activity
1,CCCCn1nc(C(=O)NC(C)(C)CO)cc1-c1cccs1,Active

# Target: T1, Cannabinoid receptor 2
# Test: Antagonist activity at human CB2 receptor expressed in CHO-K1 cells co-transfected with human Galpha16 assessed as intracellular calcium flux
# Format: functional, cell-based
# Conditions: not given
row,Structure (SMILES),pIC50
1,COc1ccc(C(=O)c2c(C)n(CCN3CCOCC3)c3cc(I)ccc23)cc1,6.75
2,CC(C)(CO)NC(=O)c1cc(-c2cccs2)n(CC2CC2)n1,< 4.00
3,CCCCCn1nc(C(=O)NC(C)(C)CO)cc1-c1cc(C)cs1,7.16
4,CCCCn1nc(C(=O)NC(C)(C)CO)cc1-c1cccn1C(C)C,< 4.00
5,COCCn1nc(C(=O)NC(C)(C)CO)cc1-c1cccs1,< 4.00
6,CCCCCCC(C)(C)c1ccc([C@@H]2C[C@H](C)CC[C@H]2CCCO)c(O)c1,< 4.00
7,CCCCn1nc(C(=O)NC(C)(C)CO)cc1-c1cccs1,< 4.00

# Test system: Mus musculus
# Test: Antiinflammatory activity against DSS-induced colitis in po dosed C57/BL6 mouse model assessed as suppression of TNF-alpha expression administered for 9 days by ELISA analysis
# Format: functional, organism-based
# Conditions: dose 10-30 mg/kg, time 9.0 day
row,Structure (SMILES),Activity
1,CCCCn1nc(C(=O)NC(C)(C)CO)cc1-c1cccs1,Dose-dependent-effect

# Target: T1, Cannabinoid receptor 2
# Test: Agonist activity at human CB2 receptor expressed in CHO-K1 cells co-transfected with human Galpha16 assessed as intracellular calcium flux at 10 uM relative to control
# Format: functional, cell-based
# Conditions: filed as agonist
row,Structure (SMILES),Emax
1,CC(C)(CO)NC(=O)c1cc(-c2cccs2)n(CC2CC2)n1,55%
2,COCCn1nc(C(=O)NC(C)(C)CO)cc1-c1cccs1,46%
3,CCCCCCC(C)(C)c1ccc([C@@H]2C[C@H](C)CC[C@H]2CCCO)c(O)c1,100%
4,CCCCn1nc(C(=O)NC(C)(C)CO)cc1-c1cccs1,90%

# Target: T2, Cannabinoid receptor 1 (Homo sapiens, UniProt P21554)
# Test: Agonist activity at human CB1 receptor expressed in CHO-K1 cells co-transfected with human Galpha16 assessed as intracellular calcium flux
# Format: functional, cell-based
# Conditions: not given
# T2 sequence (P21554 whole entry): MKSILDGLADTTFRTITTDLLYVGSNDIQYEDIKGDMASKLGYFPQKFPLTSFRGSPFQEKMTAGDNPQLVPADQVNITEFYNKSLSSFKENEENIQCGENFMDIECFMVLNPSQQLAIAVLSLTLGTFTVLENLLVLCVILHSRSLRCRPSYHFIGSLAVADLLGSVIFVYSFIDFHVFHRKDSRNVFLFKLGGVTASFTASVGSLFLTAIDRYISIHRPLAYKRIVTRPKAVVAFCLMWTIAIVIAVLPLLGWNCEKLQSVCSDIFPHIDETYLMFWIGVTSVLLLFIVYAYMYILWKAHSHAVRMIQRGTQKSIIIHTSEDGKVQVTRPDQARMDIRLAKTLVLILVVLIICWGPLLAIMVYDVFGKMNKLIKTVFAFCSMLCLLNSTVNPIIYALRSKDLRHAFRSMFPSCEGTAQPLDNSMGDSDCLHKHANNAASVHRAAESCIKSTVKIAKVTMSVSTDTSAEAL
row,Structure (SMILES),pEC50
1,CC(C)(CO)NC(=O)c1cc(-c2cccs2)n(CC2CC2)n1,< 4.00
2,CCCCCn1nc(C(=O)NC(C)(C)CO)cc1-c1cc(C)cs1,< 4.00
3,CCCCn1nc(C(=O)NC(C)(C)CO)cc1-c1cccn1C(C)C,< 4.00
4,COCCn1nc(C(=O)NC(C)(C)CO)cc1-c1cccs1,< 4.00
5,CCCCn1nc(C(=O)NC(C)(C)CO)cc1-c1cccs1,< 4.00

# Target: T1, Cannabinoid receptor 2
# Test: Agonist activity at human CB2 receptor expressed in HEK293 cells assessed as forskolin-stimulated cAMP accumulation preincubated with compound for 10 mins followed by forskolin induction and measured after 2 hrs by HTRF analysis
# Format: functional, cell-based
# Conditions: not given
row,Structure (SMILES),pEC50
1,CCCCCCC(C)(C)c1ccc([C@@H]2C[C@H](C)CC[C@H]2CCCO)c(O)c1,7.79
2,CCCCn1nc(C(=O)NC(C)(C)CO)cc1-c1cccs1,7.82

# Test system: Mus musculus
# Test: Antiinflammatory activity against DSS-induced colitis C57/BL6 mouse model assessed as reduction in inflammatory infiltration at 10 to 30 mg/kg, po administered for 9 days by H and E staining based analysis
# Format: functional, organism-based
# Conditions: dose 10-30 mg/kg, time 9.0 day
row,Structure (SMILES),Activity
1,CCCCn1nc(C(=O)NC(C)(C)CO)cc1-c1cccs1,Active

# Test system: Mus musculus
# Test: Antiinflammatory activity against DSS-induced colitis in po dosed C57/BL6 mouse model assessed as suppression of IL-1beta expression administered for 9 days by ELISA analysis
# Format: functional, organism-based
# Conditions: dose 10-30 mg/kg, time 9.0 day
row,Structure (SMILES),Activity
1,CCCCn1nc(C(=O)NC(C)(C)CO)cc1-c1cccs1,Dose-dependent-effect

# Test system: Mus musculus
# Test: Antiinflammatory activity against DSS-induced colitis C57/BL6 mouse model assessed as disruption of epithelial layer in colon at 10 to 30 mg/kg, po administered for 9 days by H and E staining based analysis
# Format: functional, organism-based
# Conditions: dose 10-30 mg/kg, time 9.0 day
row,Structure (SMILES),Activity
1,CCCCn1nc(C(=O)NC(C)(C)CO)cc1-c1cccs1,Active

# Target: T1, Cannabinoid receptor 2
# Test: Partial agonist activity at human CB2 receptor expressed in CHO-K1 cells co-transfected with human Galpha16 assessed as intracellular calcium flux at 10 uM
# Format: functional, cell-based
# Conditions: filed as partial agonist
row,Structure (SMILES),Activity
1,CCCCn1nc(C(=O)NC(C)(C)CO)cc1-c1cccn1C(C)C,Weak_effect

# Target: T1, Cannabinoid receptor 2
# Test: Antagonist activity at human CB2 receptor expressed in CHO cells co-transfected with human Galpha16 assessed as increase in intracellular calcium mobilization
# Format: functional, cell-based
# Conditions: filed as antagonist
row,Structure (SMILES),Activity
1,CCCCn1nc(C(=O)NC(C)(C)CO)cc1-c1cccs1,Active

# Target: T1, Cannabinoid receptor 2
# Test: Agonist activity at human CB2 receptor expressed in CHO-K1 cells co-transfected with human Galpha16 assessed as intracellular calcium flux at 10 uM
# Format: functional, cell-based
# Conditions: not given
row,Structure (SMILES),Activity
1,CCCCn1nc(C(=O)NC(C)(C)CO)cc1-c1cccn1C(C)C,inactive

# Same assay, conditions: filed as agonist
row,Structure (SMILES),Activity
1,CC(C)(CO)NC(=O)c1cc(-c2cccs2)n(CC2CC2)n1,Active
2,COCCn1nc(C(=O)NC(C)(C)CO)cc1-c1cccs1,Active

# Test system: Mus musculus
# Test: Antiinflammatory activity against DSS-induced colitis C57/BL6 mouse model assessed as delay in hematochezia development at 10 to 30 mg/kg, po administered for 9 days
# Format: functional, organism-based
# Conditions: dose 10-30 mg/kg, time 9.0 day
row,Structure (SMILES),Activity
1,CCCCn1nc(C(=O)NC(C)(C)CO)cc1-c1cccs1,Active

# Target: T1, Cannabinoid receptor 2
# Test: Agonist activity at human CB2 receptor expressed in CHO-K1 cells co-transfected with human Galpha16 assessed as intracellular calcium flux
# Format: functional, cell-based
# Conditions: not given
row,Structure (SMILES),pEC50
1,COc1ccc(C(=O)c2c(C)n(CCN3CCOCC3)c3cc(I)ccc23)cc1,< 4.00
2,CC(C)(CO)NC(=O)c1cc(-c2cccs2)n(CC2CC2)n1,6.76
3,CCCCCn1nc(C(=O)NC(C)(C)CO)cc1-c1cc(C)cs1,< 4.00
4,CCCCn1nc(C(=O)NC(C)(C)CO)cc1-c1cccn1C(C)C,< 4.00
5,COCCn1nc(C(=O)NC(C)(C)CO)cc1-c1cccs1,6.89
6,CCCCCCC(C)(C)c1ccc([C@@H]2C[C@H](C)CC[C@H]2CCCO)c(O)c1,7.46
7,CCCCn1nc(C(=O)NC(C)(C)CO)cc1-c1cccs1,7.79

# Target: T1, Cannabinoid receptor 2
# Test: Antagonist activity at human CB2 receptor expressed in CHO cells co-transfected with human Galpha16 assessed as receptor desensitization by measuring reduction in calcium response at 10 uM
# Format: functional, cell-based
# Conditions: filed as antagonist
row,Structure (SMILES),Activity
1,CCCCCCC(C)(C)c1ccc([C@@H]2C[C@H](C)CC[C@H]2CCCO)c(O)c1,Active

# Target: T1, Cannabinoid receptor 2
# Test: Antagonist activity at human CB2 receptor expressed in CHO cells co-transfected with human Galpha16 assessed as increase in intracellular calcium mobilization at 10 uM
# Format: functional, cell-based
# Conditions: filed as antagonist
row,Structure (SMILES),Activity
1,CCCCCCC(C)(C)c1ccc([C@@H]2C[C@H](C)CC[C@H]2CCCO)c(O)c1,Active

# Test system: Mus musculus
# Test: Antiinflammatory activity against DSS-induced colitis C57/BL6 mouse model assessed as reduction in disease activity index (DAI) score at 10 to 30 mg/kg, po administered for 9 days
# Format: functional, organism-based
# Conditions: dose 10-30 mg/kg, time 9.0 day
row,Structure (SMILES),Activity
1,CCCCn1nc(C(=O)NC(C)(C)CO)cc1-c1cccs1,Active

# Target: T2, Cannabinoid receptor 1
# Test: Antagonist activity at human CB1 receptor expressed in CHO-K1 cells co-transfected with human Galpha16 assessed as intracellular calcium flux
# Format: functional, cell-based
# Conditions: not given
row,Structure (SMILES),pIC50
1,CC(C)(CO)NC(=O)c1cc(-c2cccs2)n(CC2CC2)n1,< 4.00
2,CCCCCn1nc(C(=O)NC(C)(C)CO)cc1-c1cc(C)cs1,< 4.00
3,CCCCn1nc(C(=O)NC(C)(C)CO)cc1-c1cccn1C(C)C,< 4.00
4,COCCn1nc(C(=O)NC(C)(C)CO)cc1-c1cccs1,< 4.00
5,CCCCn1nc(C(=O)NC(C)(C)CO)cc1-c1cccs1,< 4.00

# Test system: Mus musculus
# Test: Antiinflammatory activity against DSS-induced colitis C57/BL6 mouse model assessed as delay in diarrhoea development at 10 to 30 mg/kg, po administered for 9 days
# Format: functional, organism-based
# Conditions: dose 10-30 mg/kg, time 9.0 day
row,Structure (SMILES),Activity
1,CCCCn1nc(C(=O)NC(C)(C)CO)cc1-c1cccs1,Active

# Target: T1, Cannabinoid receptor 2
# Test: Antagonist activity at human CB2 receptor expressed in CHO cells co-transfected with human Galpha16 assessed as increase in intracellular calcium mobilization at 10 uM preincubated with compound for 10 mins followed by HBSS buffer wash and re-treated with compound at same concentration
# Format: functional, cell-based
# Conditions: filed as antagonist
row,Structure (SMILES),Activity
1,CCCCCCC(C)(C)c1ccc([C@@H]2C[C@H](C)CC[C@H]2CCCO)c(O)c1,Active

# Test system: Mus musculus
# Test: Antiinflammatory activity against DSS-induced colitis C57/BL6 mouse model assessed as loss of goblet cells at 10 to 30 mg/kg, po administered for 9 days by H and E staining based analysis
# Format: functional, organism-based
# Conditions: dose 10-30 mg/kg, time 9.0 day
row,Structure (SMILES),Activity
1,CCCCn1nc(C(=O)NC(C)(C)CO)cc1-c1cccs1,Active

# Target: T2, Cannabinoid receptor 1
# Test: Agonist activity at human CB1 receptor expressed in CHO-K1 cells co-transfected with human Galpha16 assessed as intracellular calcium flux at 10 uM relative to control
# Format: functional, cell-based
# Conditions: filed as agonist
row,Structure (SMILES),Emax
1,CCCCCCC(C)(C)c1ccc([C@@H]2C[C@H](C)CC[C@H]2CCCO)c(O)c1,100%
